Values joined by “and” are separate entries in the source; they are usually repeats but may differ in a detail not shown here. Equal entries are not always repeated.
Key:
[1] = Hygroscopicity study of Crystal Form A; type: physicochemical; conditions: 25° C., 24 hours
Excerpt: Categorization in the hygroscopicity evaluation is as follows:
• 1) Two dry stoppered glass weighing bottles (50 mm external diameter, 30 mm high) were taken and kept in a desiccator with a saturated solution of ammonium chloride in the lower part. The weighing bottles were left open.

CYP2C9 = molecular target: T1, CYP2C9 (Homo sapiens, UniProt P11712); assay: Human liver microsomal cytochrome P450 isozyme inhibition; type: in vitro ADME; conditions: human liver microsomes
T1 construct: Mixed human liver microsomes (HLM) were purchased from Corning Inc; tissue Corning Inc; host or cells: pooled human liver microsomes
T1 sequence (P11712 whole entry): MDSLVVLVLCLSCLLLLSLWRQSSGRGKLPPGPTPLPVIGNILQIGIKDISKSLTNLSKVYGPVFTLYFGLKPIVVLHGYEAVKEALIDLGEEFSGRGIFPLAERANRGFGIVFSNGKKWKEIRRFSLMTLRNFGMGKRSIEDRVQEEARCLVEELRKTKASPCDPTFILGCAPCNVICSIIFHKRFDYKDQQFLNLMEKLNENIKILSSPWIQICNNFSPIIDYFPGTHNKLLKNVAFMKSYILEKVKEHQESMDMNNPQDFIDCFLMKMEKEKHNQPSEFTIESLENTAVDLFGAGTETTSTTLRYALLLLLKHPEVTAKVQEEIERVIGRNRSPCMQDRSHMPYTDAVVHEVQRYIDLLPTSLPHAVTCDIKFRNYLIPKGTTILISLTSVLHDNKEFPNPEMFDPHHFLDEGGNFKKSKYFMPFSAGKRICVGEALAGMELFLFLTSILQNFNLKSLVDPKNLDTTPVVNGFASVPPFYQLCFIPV
Experimental: (§1) The aim of the project was to evaluate the inhibitory activity of the test article against human liver microsomal cytochrome P450 isozymes (CYP1A2, CYP2C9, CYP2C19, CYP2D6 and CYP3A4) using a 5-in-1 probe substrate for CYP isozymes.
(§2) Mixed human liver microsomes (HLM) were purchased from Corning Inc. (Steuben, New York, USA) and stored at less than −80° C. prior to use. A diluted series of concentrations of the stock solution of the test article was added to an incubation system containing human liver microsomes, probe substrate and cofactors of the circulatory system. The control without the test article but with solvent was used as the enzyme activity control (100%). The concentration of metabolites generated by the probe substrate in the samples was determined by liquid chromatography-tandem mass spectrometry (LC-MS/MS). A non-linear regression analysis of the mean percentage activity of the test article against concentration was performed using SigmaPlot (V.11). The IC50 values were calculated using a three- or four-parameter inverse hyperbolic logarithmic function.

CYP1A2 = molecular target: T2, CYP1A2 (Homo sapiens, UniProt P05177); assay: as above; type: in vitro ADME; conditions: human liver microsomes
T2 construct: Mixed human liver microsomes (HLM) were purchased from Corning Inc; tissue Corning Inc; host or cells: pooled human liver microsomes
T2 sequence (P05177 1-516): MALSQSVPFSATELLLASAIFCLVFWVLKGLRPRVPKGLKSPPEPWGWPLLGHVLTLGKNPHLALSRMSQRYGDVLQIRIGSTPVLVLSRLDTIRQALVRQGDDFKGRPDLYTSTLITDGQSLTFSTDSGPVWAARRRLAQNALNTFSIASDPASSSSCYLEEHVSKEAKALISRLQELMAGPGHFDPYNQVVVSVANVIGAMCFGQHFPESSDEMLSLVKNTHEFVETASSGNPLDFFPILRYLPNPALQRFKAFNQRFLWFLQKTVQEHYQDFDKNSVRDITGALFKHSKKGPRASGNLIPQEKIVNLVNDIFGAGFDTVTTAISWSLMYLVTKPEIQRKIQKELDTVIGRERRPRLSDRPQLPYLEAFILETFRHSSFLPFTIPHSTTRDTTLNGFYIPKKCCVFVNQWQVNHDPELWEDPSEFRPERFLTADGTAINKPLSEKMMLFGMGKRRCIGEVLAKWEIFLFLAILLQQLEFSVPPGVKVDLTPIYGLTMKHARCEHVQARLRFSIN
Experimental: as §1, §2

CYP2C19 = molecular target: T3, CYP2C19 (Homo sapiens, UniProt P33261); assay: as above; type: in vitro ADME; conditions: human liver microsomes
T3 construct: Mixed human liver microsomes (HLM) were purchased from Corning Inc; tissue Corning Inc; host or cells: pooled human liver microsomes
T3 sequence (P33261 whole entry): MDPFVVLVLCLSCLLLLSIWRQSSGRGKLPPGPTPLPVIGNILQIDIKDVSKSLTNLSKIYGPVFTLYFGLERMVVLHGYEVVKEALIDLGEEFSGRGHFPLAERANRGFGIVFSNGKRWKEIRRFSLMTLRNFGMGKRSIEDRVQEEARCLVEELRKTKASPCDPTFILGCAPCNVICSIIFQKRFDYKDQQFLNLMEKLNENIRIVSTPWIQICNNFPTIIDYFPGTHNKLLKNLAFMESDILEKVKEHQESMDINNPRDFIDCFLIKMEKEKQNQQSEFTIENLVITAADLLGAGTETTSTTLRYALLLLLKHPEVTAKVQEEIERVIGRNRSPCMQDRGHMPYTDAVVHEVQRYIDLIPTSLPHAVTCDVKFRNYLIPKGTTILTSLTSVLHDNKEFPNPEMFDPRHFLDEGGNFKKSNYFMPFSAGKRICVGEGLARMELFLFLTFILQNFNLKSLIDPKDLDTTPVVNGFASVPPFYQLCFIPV
Experimental: as §1, §2

Row | SMILES | Hygroscopicity categorization [1] | Moisture-absorption weight gain, Mean (%) ([1]; mean of two samples, desiccator with saturated ammonium chloride solution) | Weight gain percentage (%) ([1]; single sample, desiccator with saturated ammonium chloride solution) | Inhibition on the isozyme CYP2C9 (in words) (CYP2C9) | IC50 (CYP1A2) | IC50 (CYP2C19)
1 | COCCNS(=O)(=O)Nc1ncnc(OCCOc2ncc(Br)cn2)c1-c1ccc2c(c1)OCO2 | non- or almost non-hygroscopic | 0.075% | 0.11% and 0.04% | – | – | –
2 | CCCNS(=O)(=O)Nc1ncnc(OCCOc2ncc(Br)cn2)c1-c1ccc(Br)cc1 [Macitentan, reference compound] | – | – | – | moderate inhibition | 37.4 µM | 31.7 µM
